Values after ≈ are worked out from the molar mass of the structure shown.

In assay [1] the test system is M. tuberculosis H37Rv. Put plainly: microbe, parasite or virus in culture. The format is cell-based, Mycobacterium tuberculosis. The conditions noted are these: for MIC: Mycobacterium tuberculosis, H37RV, read-out: MIC for H37Rv; for MIC for H37Rv: M. tuberculosis H37Rv parental strain.
The subject of assay [2] is M. tuberculosis strains H37Rv, V4207, V2475, KZN494, TF274, R506. The conditions noted are these: MDR strains V2475 and KZN494; cited from earlier work.
Assay [3] deals with M. tuberculosis H37Rv. The format is in vivo, Mycobacterium tuberculosis. The conditions noted are these: 10 mg/kg oral gavage daily (5 days per week), BALB/c mice.

Take `NCC[C@H](O)C(=O)N[C@@H]1C[C@H](N)[C@@H](O[C@H]2O[C@H](CN)[C@@H](O)[C@H](O)[C@H]2O)[C@H](O)[C@H]1O[C@H]1O[C@H](CO)[C@@H](O)[C@H](N)[C@H]1O` [Amikacin]: the MIC in assay [1] stood at 1 mg/L (≈ 1.71 µM).

Regarding `CC[C@@H](CO)NCCN[C@@H](CC)CO` [Ethambutol], in assay [1], the MIC is 1 mg/L (≈ 4.89 µM).

On to `NNC(=O)c1ccncc1` [Isoniazid], for which the MIC in assay [1] is 0.04 mg/L (≈ 0.292 µM). Also, in assay [2], the “Susceptibility of the MDR strains” value is listed as “resistant”. Further, in assay [3], the “Mean lung CFU counts (standard deviation), Day 7” value is listed as 5.508 (0.124) log10 CFU/lung; the “Mean lung CFU counts (standard deviation), Day 14” value was 5.266 (0.089) log10 CFU/lung; the “Mean lung CFU counts (standard deviation), Day 28” value is recorded as 4.561 (0.088) log10 CFU/lung.

For the compound `NC[C@H]1O[C@H](O[C@H]2[C@H](O)[C@@H](O[C@H]3O[C@H](CO)[C@@H](O)[C@H](N)[C@H]3O)[C@H](N)C[C@@H]2N)[C@H](O)[C@@H](O)[C@@H]1O` [Kanamycin], the “MIC for H37Rv” value in assay [1] was 2 mg/L.

In the case of `C[C@H]1COc2c(N3CCN(C)CC3)c(F)cc3c(=O)c(C(=O)O)cn1c23` [Levofloxacin], the MIC in assay [1] was 0.25 mg/L (≈ 0.692 µM).

In the case of `COc1c(N2C[C@@H]3CCCN[C@@H]3C2)c(F)cc2c(=O)c(C(=O)O)cn(C3CC3)c12` [Moxifloxacin], the MIC in assay [1] fell in the range of 0.0625 to 0.125 mg/L (≈ 0.156 to 0.311 µM).

`CO[C@H]1/C=C/O[C@@]2(C)Oc3c(C)c(O)c4c(O)c(c(/C=N/N5CCN(C)CC5)c(O)c4c3C2=O)NC(=O)/C(C)=C\C=C\[C@H](C)[C@H](O)[C@@H](C)[C@@H](O)[C@@H](C)[C@H](OC(C)=O)[C@@H]1C` [Rifampin]: in assay [1], the MIC stood at 0.125 mg/L (≈ 0.152 µM). In addition, the “Susceptibility of the MDR strains” value in assay [2] is “resistant”.

Consider `CC(C)=CCC/C(C)=C/CNCCNC1C2CC3CC(C2)CC1C3` (centres unmarked) [SQ109], for which the MIC in assay [1] worked out at 0.25 mg/L (≈ 0.756 µM).

As to Capreomycin, the “MIC for H37Rv” value in assay [1] was 1 mg/L.

These data come from article PMC3909880 (Nature communications, 2013).
